22 compounds from patent US5869500A, “Pyridone compounds useful in treating Alzheimer's disease” (Hoffmann-La Roche Inc., priority 1996, dated 1999) can be followed below.

Structures are written as SMILES. Where a name gives a salt, the structure may show the parent alone.

Test [1] concerns Aβ production in HEK cells over-expressing mutated β-APP (SFAD). Nature of the test: Aβ production inhibition, sandwich-ELISA in HEK cells, over-expressed mutated β-APP (SE-SFAD). The following applies: Homo sapiens, HEK293, HEK cells; for IC50: based on the respective plateau of maximum inhibition; for Emax: maximum inhibition plateau, read-out: SE-SFAD max. inhibition %. It is filed as cell-based, human. The method, boiled down: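 HEK cells expressing recombinant human wild-type or mutated (SFAD) β-APP treated with compound for 24 to 48 hours at 37° C, 10% CO2. IC50 based on plateau of maximum inhibition.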

The test system of test [2] is Aβ production in HEK cells over-expressing Wild type β-APP. Nature of the test: Aβ production inhibition, sandwich-ELISA in HEK cells which over-express Wild type β-APP (SE-WT). It is filed as cell-based, human. The following applies: Homo sapiens; for IC50: HEK293, based on the respective plateau of maximum inhibition; for Emax: HEK293, maximum inhibition plateau, read-out: SE-WT max. inhibition %. How it is done: The effect of test substances on the inhibition of Aβ-amyloid production can be measured in the supernatant of cell cultures of β-APP expressed cells using ELISA tests or other quantitative determination methods for β-APP degradation products. Typically, 8×10^5 cells (e.g. HEK cells, which express recombinant human β-APP variants) are plated out in each well of a culture dish having 24 wells in growth media such as e.g. OPTIMEM (Gibco) and the test compound is then added. After an incubation period of 24 to 48 hours at 37° C. in a 10% CO2 atmosphere the supernatant is removed from the cell cultures and the β-APP degradation products (e.g. Aβ or β-[…]) are determined with the aid of ELISA (or sandwich ELISA) analysis or by means of quantitative immunoprecipitation (after metabolic radiolabelling of the cell proteins). Typically, 300 μl of the cell supernatant are tested according to the state of the art for ELISA tests in culture dishes having 96 wells. In the case of sandwich ELISA for Aβ, the binding antibody can be directed against the first 16 amino acids of Aβ-peptide (e.g. 6E10 Senetek, Maryland Heights, Mo.) and the detection antibody can be directed against amino acids 17-40 or 17-42 of Aβ and carries a detection system such as e.g. peroxidase. A simple ELISA test with an antibody, e.g. 22C11 (Boehringer Mannheim), can be used as the test for […]; the second antibody can be an anti-(mouse) Ig having a detection system, such as e.g. peroxidase. The peroxidase reaction can be carried out e.g. using a TMB substrate (BioRAD) and the measurements can be carried out at 650 nm using an ELISA reading apparatus. […] SE-SFAD signifies the Aβ production inhibition measured using sandwich-ELISA in HEK cells, SFAD signifies over-expressed mutated β-APP, and SE-WT signifies the Aβ production inhibition measured using sandwich-ELISA in HEK cells which over-express Wild type β-APP. The IC50 values are based on the respective plateau of maximum inhibition.

As to `CN1CCC[C@H]1COC(=O)c1cc(-c2ccccc2)c(=O)n2ccc3ccsc3c12` [Compound 28, 1-Methyl-pyrrolidin-2-(S)-yl-methyl 7-oxo-8-phenyl-7H-thieno[2,3-a]-quinolizine-10-carboxylate], the values for the IC50 in test [1] and in test [2] were 9 µM and 2 µM, respectively. Moreover, the Emax in test [1] and in test [2] was 100% in each case.

As to `O=C(OCCN1CCCC1=O)c1cc(-c2ccccc2)c(=O)n2ccc3ccsc3c12` [Compound 29, 2-(2-Oxo-pyrrolidin-1-yl)-ethyl 7-oxo-8-phenyl-7H-thieno[2,3-a]-quinolizine-10-carboxylate], in test [1], the IC50 was determined as 3 µM and the Emax turned out to be 40%. In addition, in test [2], inhibition was half-maximal at 4.1 µM (IC50) and the Emax was 80%.

In the case of `CN(C)C(=O)COC(=O)c1cc(-c2ccccc2)c(=O)n2ccc3ccsc3c12` [Compound 30, Dimethyl-carbamoylmethyl 7-oxo-8-phenyl-7H-thieno[2,3-a]-quinolizine-10-carboxylate], in test [1], the midpoint of inhibition, the IC50, lay at 5 µM and the Emax came out at 25%. Also, in test [2], inhibition was half-maximal at 5 µM (IC50) and the Emax was determined as 60%.

Turning to `CC(C)C[C@H](N)COC(=O)c1cc(-c2ccccc2)c(=O)n2ccc3ccsc3c12` [Compound 31, 2-(S)-Amino-4-methyl-pentyl 7-oxo-8-phenyl-7H-thieno[2,3-a]-quinolizine-10-carboxylate], in test [1], the IC50 came to 5.3 µM and the Emax came to 100%. In test [2], the IC50 was 1.2 µM and the Emax was determined as 55%.

In the case of `O=C(OCCN1CCOCC1)c1cc(-c2ccccc2)c(=O)n2ccc3ccsc3c12` [Compound 32, 2-Morpholin-4-yl-ethyl 7-oxo-8-phenyl-7H-thieno[2,3-a]quinolizine-10-carboxylate hydrochloride], in test [1], it took 30 µM to reach half-maximal inhibition (IC50) and the Emax worked out at 100%. Further, in test [2], it took 3 µM to reach half-maximal inhibition (IC50) and the Emax is 100%.

With `COC(=O)c1cc(-c2ccccc2)c(=O)n2ccccc12` [Compound 33, Methyl 4-oxo-3-phenyl-4H-quinolizine-1-carboxylate], in test [1], the IC50 worked out at 6 µM and the Emax was 40%. In addition, in test [2], the midpoint of inhibition, the IC50, lay at 5 µM and the Emax stood at 40%.

`COC[C@@H]1CCCN1C(=O)c1cc(-c2ccccc2)c(=O)n2ccc3ccsc3c12` [Compound 34, 10-(2-(S)-Methoxymethyl-pyrrolidine-1-carbonyl)-8-phenyl-thieno-[2,3-a]-quinolizin-7-one]: the IC50 was determined as 9 µM in test [1] and 4 µM in test [2]. Besides, the results for the Emax in test [1] and in test [2] were 50% and 60%, respectively.

On to `COC[C@H]1CCCN1C(=O)c1cc(-c2ccccc2)c(=O)n2ccc3ccsc3c12` [Compound 35, 10-(2-(R)-Methoxymethyl-pyrrolidine-1-carbonyl)-8-phenyl-thieno-[2,3-a]quinolizin-7-one], for which, in test [1], the IC50 turned out to be 6 µM and the Emax is 50%. Besides, in test [2], the IC50 is 3 µM and the Emax is 65%.

As for `COC(=O)c1cc(-c2ccccc2)c(=O)n2ccc3ccc(Cl)cc3c12` [Compound 36, Methyl 10-chloro-4-oxo-3-phenyl-4H-pyrido [2,1-a]isoquinoline-1-carboxylate], the IC50 stood at 2.8 µM in test [1] and 1 µM in test [2]. In addition, the Emax in test [1] worked out at 40%; in test [2] it was 60%.

Turning to `COCC1CCCN1C(=O)c1cc(-c2ccccc2)c(=O)n2ccc3ccc(Cl)cc3c12` (stereo not shown) [Compound 37, 10-Chloro-1-(2-methoxymethyl-pyrrolidine-1-carbonyl)-3-phenyl-pyrido [2,1-a]isoquinolin-4-one], in test [1], the IC50 was found to be 7 µM and the Emax is 100%. In test [2], it took 1 µM to reach half-maximal inhibition (IC50) and the Emax came out at 70%.

With `COC[C@H]1CCCN1C(=O)c1cc(-c2ccccc2)c(=O)n2ccc3ccc(Cl)cc3c12` [Compound 38, 10-Chloro-1-(2-(R)methoxymethyl-pyrrolidine-1-carbonyl)-3-phenyl-pyrido [2,1-a]isoquinolin-4-one], the figures for the IC50 in test [1] and in test [2] were 7 µM and 1.5 µM, respectively. The Emax came to 100% in test [1] and 70% in test [2].

For `COC1CN(C(=O)c2cc(-c3ccccc3)c(=O)n3ccc4ccsc4c23)C1` [Compound 39, 10-(3-Methoxy-azetidine-1-carbonyl)-8-phenyl-thieno[2,3-a]quinolizin-7-one], in test [1], half-maximal inhibition (IC50) was put at 7 µM and the Emax amounted to 30%. In addition, in test [2], the IC50 was 6 µM and the Emax worked out at 50%.

Consider `COC1CN(C(=O)c2cc(-c3ccccc3)c(=O)n3ccc4ccc(Cl)cc4c23)C1` [Compound 40, 10-Chloro-1-(3-methoxy-azetidine-1-carbonyl)-3-phenyl-pyrido-[2,1-a]isoquinolin-4-one], for which the IC50 was determined as 6.8 µM in test [1] and 7 µM in test [2]. Further, the Emax was determined as 100% in test [1] and 70% in test [2].

Take `COC1CCN(C(=O)c2cc(-c3ccccc3)c(=O)n3ccc4ccc(Cl)cc4c23)C1` (stereo not shown) [Compound 41, 10-Chloro-1-(3-methoxy-pyrrolidine-1-carbonyl)-3-phenyl-pyrido [2,1-a]isoquinolin-4-one]: in test [1], inhibition was half-maximal at 6 µM (IC50) and the Emax worked out at 100%. Also, in test [2], the IC50 stood at 3.5 µM and the Emax stood at 75%.

Turning to `CCN(CCOC)C(=O)c1cc(-c2ccccc2)c(=O)n2ccc3ccc(Cl)cc3c12` [Compound 42, 10-Chloro-4-oxo-3-phenyl-4H-pyrido[2,1-a]isoquinoline-1-carboxylic acid ethyl-(2-methoxy-ethyl)-amide], the IC50 in test [1] came to 3 µM; in test [2] it was 0.9 µM. Moreover, the Emax in test [1] and in test [2] was 100% each time.

As to `O=C(ON1C(=O)CCC1=O)c1cc(-c2ccccc2)c(=O)n2ccc3ccsc3c12` [Compound 43, 2,5-Dioxo-pyrrolidin-1-yl 7-oxo-8-phenyl-7H-thieno[2,3-a]quinolizine-10-carboxylate], in test [1], the IC50 was determined as 2 µM and the Emax is 50%. In test [2], the IC50 was found to be 5 µM and the Emax worked out at 70%.

For `O=C(c1cc(-c2ccc(O)cc2)c(=O)n2ccc3ccsc3c12)N1CCC[C@@H]1CO` [Compound 44, 10-(2-(R)-Hydroxymethyl-pyrrolidine-1-carbonyl)-8-(4-hydroxyphenyl)-thieno[2,3-a]quinolizin-7-one], in test [1], half-maximal inhibition (IC50) required 6 µM and the Emax is 50%. Besides, in test [2], the IC50 worked out at 5 µM and the Emax is 50%.

`Cc1cc(C)n(C(=O)c2cc(-c3ccccc3)c(=O)n3ccc4ccsc4c23)n1` [Compound 45, 10-(3,5-Dimethyl-pyrazole-1-carbonyl)-8-phenyl-thieno[2,3-a]-quinolizin-7-one]: the IC50 in test [1] was found to be 0.9 µM; in test [2] it was 0.5 µM. Besides, the Emax in test [1] came to 40%; in test [2] it was 30%.

Take `O=C(OCC#CCN1CCOCC1)c1cc(-c2ccccc2)c(=O)n2ccc3ccsc3c12` [Compound 46, 4-(Morpholin-4-yl)-but-2-ynyl 7-oxo-8-phenyl-7H-thieno[2,3-a]-quinolizine-10-carboxylate]: in test [1], the IC50 came to 4 µM and the Emax turned out to be 70%. In test [2], the half-inhibitory concentration (IC50) is 1 µM and the Emax amounted to 50%.

`O=C(OCC#CCN1CCCC1)c1cc(-c2ccccc2)c(=O)n2ccc3ccsc3c12` [Compound 47, 4-(Pyrrolidin-1-yl)-but-2-ynyl 7-oxo-8-phenyl-7H-thieno[2,3-a]-quinolizine-10-carboxylate methanesulphonate]: in test [1], the midpoint of inhibition, the IC50, lay at 5 µM and the Emax came to 55%. Further, in test [2], the IC50 came out at 1.5 µM and the Emax was 55%.

Turning to `CC(C)N(CC#CCOC(=O)c1cc(-c2ccccc2)c(=O)n2ccc3ccsc3c12)C(C)C` [Compound 48, 4-Diisopropylamino-but-2-ynyl 7-oxo-8-phenyl-7H-thieno[2,3-a]-quinolizine-10-carboxylate methanesulphonate], in test [1], the IC50 was 12 µM and the Emax was 100%. In test [2], the IC50 was found to be 3.3 µM and the Emax stood at 100%.

Turning to `O=C(Nc1nccs1)c1cc(-c2ccccc2)c(=O)n2ccc3ccsc3c12` [Compound 49, 7-Oxo-8-phenyl-7H-thieno[2,3-a]quinolizine-10-carboxylic acid thiazol-2-yl-amide], in test [1], half-maximal inhibition (IC50) required 0.7 µM and the Emax is 50%. In test [2], half-maximal inhibition (IC50) was put at 0.5 µM and the Emax came out at 50%.
